Measured values: patent US20210382058A1, “PATIENT SELECTION FOR TREATMENT OF MYC POSITIVE CANCERS WITH INDENOISOQUINOLINES” (Purdue Research Foundation, priority 2020, published 2021)
Like-named read-outs stand apart in the source and are kept apart here.

Experiments:
[1] = test system: NCI-60 cancer cell lines; experiment: NCI-60 cancer cell line drug screen (GI50, MGM); type: cell-based, human; conditions: Homo sapiens; for mean GI50 across NCI-60 panel (MGM): average of GI50 values across the entire panel of NCI-60 cancer cell lines
Method: Cancer cells were incubated with the test compounds at five concentrations ranging from 100 μM to 10 nM for 48 h. […] The approximate average of GI50 values across the entire panel of NCI-60 cancer cell lines for each compound was recorded as the MGM value.

[2] = target: T1, human topoisomerase I (Homo sapiens, UniProt P11387); conditions: relative topoisomerase I inhibition levels, previously determined, six levels (0 - 5, +++++ = 5); cited from earlier work
T1 sequence (P11387 1-765): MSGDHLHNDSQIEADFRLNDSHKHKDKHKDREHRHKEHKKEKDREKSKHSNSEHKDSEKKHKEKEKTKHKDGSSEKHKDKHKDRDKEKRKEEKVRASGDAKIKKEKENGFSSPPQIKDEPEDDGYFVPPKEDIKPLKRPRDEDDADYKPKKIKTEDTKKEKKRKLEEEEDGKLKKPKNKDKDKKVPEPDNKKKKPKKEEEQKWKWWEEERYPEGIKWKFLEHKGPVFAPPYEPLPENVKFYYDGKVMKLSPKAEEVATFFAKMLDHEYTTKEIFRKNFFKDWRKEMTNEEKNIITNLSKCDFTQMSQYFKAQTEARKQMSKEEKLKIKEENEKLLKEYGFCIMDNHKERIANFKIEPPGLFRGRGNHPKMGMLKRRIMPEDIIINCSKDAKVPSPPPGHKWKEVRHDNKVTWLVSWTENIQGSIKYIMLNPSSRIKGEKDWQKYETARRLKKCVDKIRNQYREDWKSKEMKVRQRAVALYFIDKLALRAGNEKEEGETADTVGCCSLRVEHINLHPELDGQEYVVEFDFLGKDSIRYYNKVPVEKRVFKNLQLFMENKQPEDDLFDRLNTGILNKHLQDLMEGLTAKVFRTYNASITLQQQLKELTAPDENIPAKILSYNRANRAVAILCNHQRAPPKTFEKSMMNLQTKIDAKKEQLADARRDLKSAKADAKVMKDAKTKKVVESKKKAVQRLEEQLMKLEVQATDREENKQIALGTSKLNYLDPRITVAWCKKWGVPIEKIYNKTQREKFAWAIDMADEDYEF

[3] = test system: MYC protein expression in MCF-7 breast cancer cells; experiment: Western blotting of MYC protein level in MCF-7 cells; type: cell-based, human; conditions: Homo sapiens, MCF7; western blotting, MCF-7 cells, 0.5, 1, 2, and 4 μM, 24 hours; read-out: MYC Inhibition
Method: MCF-7 cells were incubated with each compound at four concentrations (0.5, 1, 2, and 4 μM) for 24 hours, and the MYC protein levels were measured (FIG. 3A and FIGS. 12 A to 12 F).
Cells were incubated at 37° C. with 5% CO2.
The gels were cut into strips that contained the proteins of interest and transferred to nitrocellulose membrane (I323002, Invitrogen) using an iBlot 2 Dry Transfer Device (Invitrogen). Immunoblotting was carried out according to standard procedures using the ECL detection method. The membrane was hybridized with the following antibodies: monoclonal anti-MYC (1:1000 dilution; rabbit, Cell Signaling Technology), monoclonal anti-GAPDH (1:2000 dilution; rabbit, Cell Signaling Technology).

[4] = A549, Non-Small Cell Lung Cancer, A549/ATCC, read-out: Antiproliferative Activities [GI50 (μM)]
[5] = CCRF-CEM, Leukemia, CCRF-CEM, read-out: Antiproliferative Activities [GI50 (μM)]
[6] = COLO 205, Colon Cancer, COLO 205, read-out: Antiproliferative Activities [GI50 (μM)]
[7] = HCC 2998, Colon Cancer, HCC-2998, read-out: Antiproliferative Activities [GI50 (μM)]
[8] = HCT-116, Colon Cancer, HCT-116, read-out: Antiproliferative Activities [GI50 (μM)]
[9] = HL-60, Leukemia, HL-60(TB), read-out: Antiproliferative Activities [GI50 (μM)]
[10] = HOP-62, Non-Small Cell Lung Cancer, HOP-62, read-out: Antiproliferative Activities [GI50 (μM)]
[11] = HOP-92, Non-Small Cell Lung Cancer, HOP-92, read-out: Antiproliferative Activities [GI50 (μM)]
[12] = K562, Leukemia, K-562, read-out: Antiproliferative Activities [GI50 (μM)]
[13] = Leukemia, SR, read-out: Antiproliferative Activities [GI50 (μM)]
[14] = MOLT-4, Leukemia, MOLT-4, read-out: Antiproliferative Activities [GI50 (μM)]
[15] = NCI-H23, Non-Small Cell Lung Cancer, NCI-H23, read-out: Antiproliferative Activities [GI50 (μM)]
[16] = NCI-H226, Non-Small Cell Lung Cancer, NCI-H226, read-out: Antiproliferative Activities [GI50 (μM)]
[17] = NCI-H322M, Non-Small Cell Lung Cancer, NCI-H322M, read-out: Antiproliferative Activities [GI50 (μM)]
[18] = NCI-H460, Non-Small Cell Lung Cancer, NCI-H460, read-out: Antiproliferative Activities [GI50 (μM)]
[19] = NCI-H522, Non-Small Cell Lung Cancer, NCI-H522, read-out: Antiproliferative Activities [GI50 (μM)]
[20] = RPMI-8226, Leukemia, RPMI-8226, read-out: Antiproliferative Activities [GI50 (μM)]
[21] = EKVX, Non-Small Cell Lung Cancer, EKVX, read-out: Antiproliferative Activities [GI50 (μM)]

| Compound | GI50 [1, 4] [µM] | GI50 [1, 5] [µM] | GI50 [1, 6] [µM] | GI50 [1, 7] [µM] | GI50 [1, 8] [µM] | GI50 [1, 9] [µM] | GI50 [1, 10] [µM] | GI50 [1, 11] [µM] | GI50 [1, 12] [µM] | GI50 [1, 14] [µM] | GI50 [1, 15] [µM] | GI50 [1, 16] [µM] | GI50 [1, 17] [µM] | GI50 [1, 18] [µM] | GI50 [1, 19] [µM] | GI50 [1, 20] [µM] | mean GI50 across NCI-60 panel (MGM) [1] [µM] | Top1 Inhibiton [2] | minimal effective concentration [3] [µM] | GI50 [1, 21] [µM] | further results |
| --- | --- | --- | --- | --- | --- | --- | --- | --- | --- | --- | --- | --- | --- | --- | --- | --- | --- | --- | --- | --- | --- |
| COc1cc2c(=O)n(CCCN3CCOCC3)c3c(c2cc1OCCCN1CCCC1)C(=O)c1cc2c(cc1-3)OCO2 [Compound 55] | 0.11 | < 0.01 | 0.31 | 3.32 | 0.16 | 0.3 | 0.19 | 1.66 | 0.19 | < 0.01 | 0.71 | 2.12 | 1 | 0.03 | 0.04 | 0.25 | 0.34 | ++ (medium inhibition, ++, MYC expression inhibited at 2.0 μM, or no clear dose-dependent MYC inhibition) | 4 | – | GI50 [1, 13]: < 0.01 µM |
| COc1cnc2c(c1)C(=O)c1c-2n(CCCN2CCNCC2)c(=O)c2cc(F)ccc12 [Compound 8] | – | – | – | – | – | – | – | – | – | – | – | – | – | – | – | – | – | + (weak inhibition, +, MYC expression inhibited at 4.0 μM) | – | – | – |
| COc1cc2c3c(n(CCCN4CCN(C)CC4)c(=O)c2cc1OC)-c1cc2c(cc1C3=O)OCO2 [Compound 49] | 18.7 | 2.44 | 10.3 | < 0.01 | 1.49 | 19.5 | 18 | 19.8 | 6.49 | < 0.01 | 11.9 | 13.9 | 15.6 | 5.81 | 15.4 | 2.39 | 12 | + (weak inhibition, +, MYC expression inhibited at 4.0 μM) | 4 | 17.7 | – |
| COc1cc2c3c(n(CCCN)c(=O)c2cc1OC)-c1cc2c(cc1C3=O)OCO2 [Compound 45] | 0.11 | < 0.01 | 0.3 | 0.1 | 0.12 | 0.22 | 0.06 | 1.65 | 0.09 | < 0.01 | 0.13 | 1.39 | – | 0.02 | 0.07 | < 0.01 | 0.18 | +++ (strong inhibition, +++, MYC expression inhibited at 0.5 to 1.0 μM) | 2 | – | GI50 [1, 13]: < 0.01 µM |
| COc1cc2c3c(n(CCCNCCO)c(=O)c2cc1OC)-c1cc2c(cc1C3=O)OCO2 [Compound 44] | – | – | – | – | – | – | – | – | – | – | – | – | – | – | – | – | – | – | 0.5 to 1 | – | GI50 ([1]; A549, read-out: Antiproliferative Activities [GI50 (μM)]): 0.03 µM; GI50 ([1]; CCRF-CEM, read-out: Antiproliferative Activities [GI50 (μM)]): < 0.01 µM; GI50 ([1]; COLO 205, read-out: Antiproliferative Activities [GI50 (μM)]): 0.38 µM; GI50 ([1]; EKVX, read-out: Antiproliferative Activities [GI50 (μM)]): 0.26 µM; GI50 ([1]; HCT-116, read-out: Antiproliferative Activities [GI50 (μM)]): 0.07 µM; GI50 ([1]; HL-60, read-out: Antiproliferative Activities [GI50 (μM)]): < 0.01 µM; GI50 ([1]; HOP-62, read-out: Antiproliferative Activities [GI50 (μM)]): 0.01 µM; GI50 ([1]; HOP-92, read-out: Antiproliferative Activities [GI50 (μM)]): 0.83 µM; GI50 ([1]; K562, read-out: Antiproliferative Activities [GI50 (μM)]): 0.02 µM; GI50 ([1]; MOLT-4, read-out: Antiproliferative Activities [GI50 (μM)]): < 0.01 µM; GI50 ([1]; NCI-H23, read-out: Antiproliferative Activities [GI50 (μM)]): < 0.01 µM; GI50 ([1]; NCI-H226, read-out: Antiproliferative Activities [GI50 (μM)]): 0.21 µM; GI50 ([1]; NCI-H322M, read-out: Antiproliferative Activities [GI50 (μM)]): 0.05 µM; GI50 ([1]; NCI-H460, read-out: Antiproliferative Activities [GI50 (μM)]): < 0.01 µM; GI50 ([1]; NCI-H522, read-out: Antiproliferative Activities [GI50 (μM)]): < 0.01 µM; GI50 ([1]; RPMI-8226, read-out: Antiproliferative Activities [GI50 (μM)]): 0.01 µM; GI50 ([1]; read-out: Antiproliferative Activities [GI50 (μM)]): < 0.01 µM; IC50 ([1]; read-out: MGM): 0.06 µM |
| COc1cc2c3c(n(CCCN4CCC(N)CC4)c(=O)c2cc1OC)-c1cc2c(cc1C3=O)OCO2 [Compound 48] | 0.65 | 0.3 | 1.14 | 0.14 | 0.12 | > 50 | 0.42 | – | 1.59 | 0.42 | 0.71 | 0.66 | 1.05 | 0.24 | 13.1 | 0.2 | 1.02 | + (weak inhibition, +, MYC expression inhibited at 4.0 μM) | 4 | 1.31 | – |
| CCNCCCn1c2c(c3ccc(F)cc3c1=O)C(=O)c1cc(OC)cnc1-2 [Compound 7] | – | – | – | – | – | – | – | – | – | – | – | – | – | – | – | – | – | ++ (medium inhibition, ++, MYC expression inhibited at 2.0 μM, or no clear dose-dependent MYC inhibition) | – | – | – |
| COc1cnc2c(c1)C(=O)c1c-2n(CCCN2CCN(C)CC2)c(=O)c2cc(Cl)ccc12 [Compound 4] | – | – | – | – | – | – | – | – | – | – | – | – | – | – | – | – | – | + (weak inhibition, +, MYC expression inhibited at 4.0 μM) | – | – | – |
| COc1cc2c3c(n(CCCNCCN)c(=O)c2cc1OC)-c1cc2c(cc1C3=O)OCO2 [Compound 46] | 0.74 | < 0.01 | 0.08 | – | 0.13 | 0.25 | 0.05 | 3.27 | 0.28 | < 0.01 | 0.05 | 0.65 | 0.53 | 0.43 | 0.4 | 0.48 | – | +++ (strong inhibition, +++, MYC expression inhibited at 0.5 to 1.0 μM) | 4 | 2.06 | – |
| COc1cc2c3c(n(CCCNC4=NCCS4)c(=O)c2cc1OC)-c1cc2c(cc1C3=O)OCO2 [Compound 50] | < 0.01 | < 0.01 | < 0.01 | < 0.01 | < 0.01 | 0.29 | < 0.01 | < 0.01 | < 0.01 | < 0.01 | 0.02 | 0.05 | 3.18 | < 0.01 | 0.02 | 0.02 | 0.04 | – | 2 | 2.57 | GI50 [1, 13]: < 0.01 µM |
| COc1cnc2c(c1)C(=O)c1c-2n(CCCN2CCNCC2)c(=O)c2cc(Cl)ccc12 [Compound 1] | – | – | – | – | – | – | – | – | – | – | – | – | – | – | – | – | – | + (weak inhibition, +, MYC expression inhibited at 4.0 μM) | – | – | – |
